{"source": "patent US20100216641A1", "about": "“Low VOC and Stable Plant Growth Regulator Liquid and Granule Compositions” (priority 2009, published 2010)", "origin": "cited, not measured here", "conditions": "at 25° C."}
{"smiles": "O=C(Nc1ccccc1)Nc1ccnc(Cl)c1", "note": "[CPPU, forchlorfenuron]", "values": [{"measurement": "water solubility", "value": 39, "unit": "ppm"}]}
